From US20220235011A1, “PHTHALAZINONE COMPOUNDS AND USE THEREOF” (ST PHARM CO., LTD., priority 2019, published 2022)

biological target: T1, Sirt6 (Homo sapiens, UniProt Q8N6T7); assay: Measurement of Sirt6 Activity (CycLex Sirt6 Deacetylase Fluorometric Assay Kit); assay type: biochemical; conditions: compound at 10 μM; fluorescence relative to the group without compound treatment (positive control group)
T1 construct: purchased CycLex CY-1156V2
In short: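 Recombinant Sirt6 with fluoro-labelled acetyl-lysine peptide, NAD and lysylendopeptidase developer, compound added from 10× stock in PBS; 1 h at room temperature. Fluorescence read at ex 490/em 530 nm; activation expressed as fluorescence ratio relative to enzyme without compound.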

T1 sequence (Q8N6T7 whole entry): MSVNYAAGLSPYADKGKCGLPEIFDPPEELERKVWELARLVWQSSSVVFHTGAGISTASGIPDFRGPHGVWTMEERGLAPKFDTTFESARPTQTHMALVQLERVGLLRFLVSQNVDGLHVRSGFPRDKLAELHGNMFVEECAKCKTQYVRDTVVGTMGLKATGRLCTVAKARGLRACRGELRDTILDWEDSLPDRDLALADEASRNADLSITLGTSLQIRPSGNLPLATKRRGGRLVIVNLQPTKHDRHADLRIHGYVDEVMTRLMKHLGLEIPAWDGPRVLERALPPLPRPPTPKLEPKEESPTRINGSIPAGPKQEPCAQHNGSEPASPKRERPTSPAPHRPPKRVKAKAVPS

| Sirt6 Activity (% activity, 10 μM) [% activity] | Structure (SMILES) |
| --- | --- |
| 161 | O=c1c2ccccc2c(-c2ccc(F)c(/C=[N+](\[O-])Cc3ccccc3)c2)nn1-c1ccc(F)cc1 [Example 54, (Z)—N-Benzyl-1-(2-fluoro-5-(3-(4-fluorophenyl)-4-oxo-3,4-dihydrophthalazin-1-yl)phenyl) Methanimine Oxide] |
| 130.07 | CCS(=O)(=O)N[C@@H]1CCCN(c2nn(-c3ccc(F)cc3)c(=O)c3ccccc23)C1 [Example 139, (R)—N-(1-(3-(4-Fluorophenyl)-4-oxo-3,4-dihydrophthalazin-1-yl)piperidin-3-yl)ethanesulfonamide] |
| 121 | CC(C)/[N+]([O-])=C/c1cccc(-c2nn(-c3ccccc3)c(=O)c3ccccc23)c1 [Example 14, (Z)—N-Isopropyl-1-(3-(4-oxo-3-phenyl-3,4-dihydrophthalazin-1-yl)phenyl)methanimine Oxide] |
| 123 | C/[N+]([O-])=C/c1cccc(-c2nn(-c3ccc(-c4ccccc4)cc3)c(=O)c3ccccc23)c1 [Example 84, (Z)-1-(3-(3-([1,1′-Biphenyl]-4-yl)-4-oxo-3,4-dihydrophthalazin-1-yl)phenyl)-N-methylmethanimine Oxide] |
| 211.3 | CC(C)(c1cccc(-c2nn(-c3ccc(F)cc3F)c(=O)c3ccccc23)c1)c1nnn[nH]1 [Example 169, 4-(3-(2-(1H-Tetrazol-5-yl)propan-2-yl)phenyl)-2-(2,4-difluorophenyl)phthalazin-1(2H)-one] |
| 146 | CCNS(=O)(=O)c1cccc(-c2nn(-c3ccc(F)cc3F)c(=O)c3ccc(F)cc23)c1 [Example 124, 3-(3-(2,4-Difluorophenyl)-7-fluoro-4-oxo-3,4-dihydrophthalazin-1-yl)-N-ethylbenzenesulfonamide] |
| 129 | CC(C)/[N+]([O-])=C/c1ccccc1-c1nn(-c2ccc(F)cc2)c(=O)c2ccccc12 [Example 41, (Z)-1-(2-(3-(4-Fluorophenyl)-4-oxo-3,4-dihydrophthalazin-1-yl)phenyl)-N-isopropyl Methanimine Oxide] |
| 198 | CS(=O)(=O)Nc1cccc(-c2nn(-c3ccc(F)cc3)c(=O)c3ccccc23)c1 [Example 10, N-(3-(3-(4-Fluorophenyl)-4-oxo-3,4-dihydrophthalazin-1-yl)phenyl)methanesulfonamide] |
| 255.33 | CC(C)(N)c1cccc(-c2nn(-c3ccc(F)cc3F)c(=O)c3ccccc23)c1.Cl [Example 200, 4-(3-(2-Aminopropan-2-yl)phenyl)-2-(2,4-difluorophenyl)phthalazin-1(2H)-one-hydrochloride] |
| 272 | CNS(=O)(=O)c1cccc(-c2nn(-c3ccc(F)cc3F)c(=O)c3ccccc23)c1 [Example 91, 3-(3-(2,4-Difluorophenyl)-4-oxo-3,4-dihydrophthalazin-1-yl)-N-methylbenzene Sulfonamide] |
| 324 | CC(C)/[N+]([O-])=C/c1cccc(-c2nn(-c3c(F)cccc3F)c(=O)c3ccccc23)c1 [Example 103, (Z)-1-(3-(3-(2,6-Difluorophenyl)-4-oxo-3,4-dihydrophthalazin-1-yl)phenyl)-N-isopropylmethanimine Oxide] |
| 205 | CC(C)(C)/[N+]([O-])=C/c1cccc(-c2nn(-c3ccc(F)cc3)c(=O)c3ccccc23)c1 [Example 43, (Z)—N-tert-Butyl-1-(3-(3-(4-fluorophenyl)-4-oxo-3,4-dihydrophthalazin-1-yl)phenyl)methanimine Oxide] |
| 181 | C/[N+]([O-])=C/c1cccc(-c2nn(-c3ccccc3)c(=O)c3ccccc23)c1 [Example 13, (Z)—N-Methyl-1-(3-(4-oxo-3-phenyl-3,4-dihydrophthalazin-1-yl)phenyl)methanimine Oxide] |
| 122.10 | CC(C)(C(=O)Nc1ccccc1)c1cccc(-c2nn(-c3ccc(F)cc3F)c(=O)c3ccccc23)c1 [Example 181, 2-(3-(3-(2,4-difluorophenyl)-4-oxo-3,4-dihydrophthalazin-1-yl)phenyl)-2-methyl-N-phenylpropanamide] |
| 272 | C/[N+]([O-])=C/c1cccc(-c2nn(-c3ccccc3F)c(=O)c3ccccc23)c1 [Example 94, (Z)-1-(3-(3-(2-Fluorophenyl)-4-oxo-3,4-dihydrophthalazin-1-yl)phenyl)-N-methyl Methanimine Oxide] |
| 176.50 | CCS(=O)(=O)N1CC=C(c2nn(-c3ccc(F)cc3F)c(=O)c3ccccc23)CC1 [Example 218, 2-(2,4-Difluorophenyl)-4-(1-(ethylsulfonyl)-1,2,3,6-tetrahydropyridin-4-yl)phthalazin-1(2H)-one] |
| 167 | O=C(NOC1CCCCO1)c1cccc(-c2nn(-c3ccc(F)cc3)c(=O)c3ccccc23)c1 (stereo not drawn) [Example 79, 3-(3-(4-Fluorophenyl)-4-oxo-3,4-dihydrophthalazin-1-yl)-N-((tetrahydro-2H-pyran-2-yl)oxy)benzamide] |
| 155.7 | CC(C)(C#N)c1cccc(-c2nn(-c3ccc(F)cc3F)c(=O)c3ccccc23)c1 [Example 168, 2-(3-(3-(2,4-Difluorophenyl)-4-oxo-3,4-dihydrophthalazin-1-yl)phenyl)-2-methylpropanenitrile] |
| 261.73 | Cl.N[C@@H]1CCCCN(c2nn(-c3ccc(Cl)cc3F)c(=O)c3ccccc23)C1 [Example 202, (R)-4-(3-Aminoazepan-1-yl)-2-(4-chloro-2-fluorophenyl)phthalazin-1-(2H)-one-hydrochloride] |
| 141 | CCS(=O)(=O)c1cccc(-c2nn(-c3c(F)cccc3F)c(=O)c3ccccc23)c1 [Example 106, 2-(2,6-Difluorophenyl)-4-(3-(ethylsulfonyl)phenyl)phthalazin-1(2H)-one] |
| 154 | CC(C)/[N+]([O-])=C/c1cccc(-c2nn(-c3cccc(F)c3)c(=O)c3ccccc23)c1 [Example 28, (Z)-1-(3-(3-(3-Fluorophenyl)-4-oxo-3,4-dihydrophthalazin-1-yl)phenyl)-N-isopropylmethanimine Oxide] |
| 185.10 | CCN(CC)S(=O)(=O)c1cccc(-c2nn(-c3ccc(F)cc3F)c(=O)c3ccccc23)c1 [Example 217, 3-(3-(2,4-Difluorophenyl)-4-oxo-3,4-dihydrophthalazin-1-yl)-N,N-diethylbenzenesulfonamide] |
| 124 | CC(C)S(=O)(=O)N(C)c1cccc(-c2nn(-c3ccc(F)cc3)c(=O)c3ccccc23)c1 [Example 73, N-(3-(3-(4-Fluorophenyl)-4-oxo-3,4-dihydrophthalazin-1-yl)phenyl)-N-methylpropan-2-sulfonamide] |

same assay, conditions: compound at 10 μM; fluorescence relative to the group without compound treatment (positive control group); 10 µM

| Sirt6 Activity (% activity, 10 μM) [% activity] | Structure (SMILES) |
| --- | --- |
| 170.10 | O=C(O)C1(C2CCCN(c3nn(-c4ccc(F)cc4F)c(=O)c4ccccc34)C2)CC1 (stereo not drawn) [Example 212, 1-(1-(3-(2,4-Difluorophenyl)-4-oxo-3,4-dihydrophthalazin-1-yl)piperidin-3-yl)cyclopropan-1-carboxylic Acid] |
